Tests used:
rice [1] = assay: Root growth-promoting activity by rice seed treatment (Example 12); format: in vivo, Oriza sativa L. japonica; conditions: rice seeds treated with 10,000 ppm acetone solution; 4 days dark at 30° C. then 35 days greenhouse
Protocol: With respect to the chemical substance Ic3-1 and the chemical substance Ic7-1 (which inhibit intracellular signaling from a plant-derived cytokinin receptor of a cell) selected in Example 7, a main root-growth promoting activity induced by seed treatment was evaluated using rice (Oriza sativa L. japonica). The chemical substance was dissolved in acetone to prepare a 10,000 ppm solution. The acetone chemical substance solution (300 μl) thus prepared was put in an eppendorf tube. Then, 15 seeds were put in the eppendorf tube. The resulting mixture was mixed for about 30 seconds. The seeds thus chemical-treated were spread and dried on a filter paper.
About 820 ml of culture soil was placed in a plastic container (120 mm in length, 97 mm in height) with a hole in the bottom. The chemical-treated seeds were sowed in the plastic container (15 seeds per plastic container). The seeds were cultivated in a dark place at 30° C. for 4 days and then cultivated in a greenhouse for 35 days. Roots of the plant thus cultivated were removed and the soil adhered to the plant was washed away, followed by freeze-drying. Then, the weight of roots after freeze-drying was measured. A test was repeated 3 times for each treatment section, and an average was determined.

cytokinin receptor CRE1 [2] = molecular target: T1, cytokinin receptor CRE1 (Arabidopsis thaliana, UniProt Q9C5U0, S567G/T1018A); assay: Inhibition of intracellular signaling from plant-derived cytokinin receptor, growth of transformed yeast cell TM182-CRE1; format: cell-based; conditions: for Relative growth rate (%) in test section of test substance to control section, Transformed cell TM182-CRE1: 30° C., 24 hours, turbidity OD 600
T1 construct: expressed in transfected cells; host or cells: Saccharomyces cerevisiae TM182 (sln1Δ) transformed with p415CYC-CRE1
T1 sequence (Q9C5U0 24-1080 S567G/T1018A): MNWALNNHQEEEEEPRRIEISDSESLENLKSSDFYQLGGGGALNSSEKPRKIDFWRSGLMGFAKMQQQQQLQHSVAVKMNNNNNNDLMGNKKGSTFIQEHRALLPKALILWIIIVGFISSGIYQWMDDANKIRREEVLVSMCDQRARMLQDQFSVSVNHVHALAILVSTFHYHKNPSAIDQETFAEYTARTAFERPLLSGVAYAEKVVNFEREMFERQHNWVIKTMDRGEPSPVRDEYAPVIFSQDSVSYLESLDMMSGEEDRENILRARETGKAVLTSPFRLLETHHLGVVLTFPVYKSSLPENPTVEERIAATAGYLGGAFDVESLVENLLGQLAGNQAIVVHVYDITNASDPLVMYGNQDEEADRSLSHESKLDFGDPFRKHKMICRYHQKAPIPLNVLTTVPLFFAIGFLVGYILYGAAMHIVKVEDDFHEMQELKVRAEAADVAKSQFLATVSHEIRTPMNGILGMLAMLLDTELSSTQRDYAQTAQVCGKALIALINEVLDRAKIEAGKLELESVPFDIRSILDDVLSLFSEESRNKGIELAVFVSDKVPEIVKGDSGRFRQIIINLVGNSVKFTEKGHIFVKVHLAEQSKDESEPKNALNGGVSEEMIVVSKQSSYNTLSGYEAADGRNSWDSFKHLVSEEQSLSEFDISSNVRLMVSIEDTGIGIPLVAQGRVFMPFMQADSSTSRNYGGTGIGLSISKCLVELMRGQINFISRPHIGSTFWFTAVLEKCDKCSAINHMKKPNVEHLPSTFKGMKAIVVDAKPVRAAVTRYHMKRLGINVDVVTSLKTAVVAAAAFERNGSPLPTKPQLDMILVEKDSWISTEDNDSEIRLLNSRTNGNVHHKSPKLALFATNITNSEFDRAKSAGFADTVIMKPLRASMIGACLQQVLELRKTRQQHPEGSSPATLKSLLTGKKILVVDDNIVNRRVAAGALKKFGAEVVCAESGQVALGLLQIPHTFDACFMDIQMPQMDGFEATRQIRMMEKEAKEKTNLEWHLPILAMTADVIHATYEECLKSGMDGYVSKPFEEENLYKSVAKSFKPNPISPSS
Summary of the method: (§1)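 Yeast TM182-CRE1 (DOLU+Glu) or control TM182-p415CYC1 (DOLU+Gal), after 18 h preculture at 30° C and dilution to OD600=0.1, exposed to compound at 2 ppm plus trans-zeatin 0.6 ppm for 24 h at 30° C. OD600 vs DMSO control, blank-corrected; inhibition = 100 − relative growth %.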

rice [3] = assay: Root growth-promoting activity using rice, seed growth pouch (Example 11); format: in vivo, Oriza sativa L. japonica; conditions: 25° C., 7 days
Protocol: With respect to the chemical substance Ic3-1 and the chemical substance Ic7-1 (which inhibit intracellular signaling from a plant-derived cytokinin receptor of a cell) selected in Example 7, a main root-growth promoting activity was evaluated using rice (Oriza sativa L. japonica). Aqueous solutions of the chemical substance having different concentrations (10 ppm, 25 ppm, each containing 0.1% DMSO) were prepared. A naper towel was impregnated with 17 ml of the chemical solution, wherein the heavy paper was placed in a seed growth pouch for observation of root growth (177 mm×163 mm, manufactured by Daiki Rika Kogyo Co., Ltd.), and 3 rice seeds were sowed on the paper towel. The pouch was put in a plastic container, and then sealed. After culture in the light at 25° C. for 7 days, the length of a main root was measured. An average of 3 repeats was determined and a root growth rate was determined by the following equation. Root growth rate (%)=(Average main root length in chemical substance-treated section)/(Average main root length in control section)×100−100

[4] = system: hypocotyl of Arabidopsis thaliana; assay: Plant differentiation-promoting activity, adventitious root formation from hypocotyl (Example 13); format: in vivo, Arabidopsis thaliana Columbia; conditions: agar medium with trans-zeatin 0.01 ppm; all test sections, final concentration 6 ppm, 2 ppm, 0.6 ppm or 0.2 ppm
Protocol: With respect to the chemical substance Ic3-1 and the chemical substance Ic7-1 (which inhibit intracellular signaling from a plant-derived cytokinin receptor of a cell) selected in Example 7, a plant differentiation-promoting activity was evaluated by examining an adventitious root formation activity using an hypocotyl of Arabidopsis thaliana Columbia.
First, an agar medium for sowing Arabidopsis thaliana was prepared. The agar medium contains, as components per 1 liter of an aqueous solution, 1 parcel of mixed salts for Murashige-Scoog plant medium (Wako Pure Chemical Industries, Ltd.) for 1 liter, 10 g of sucrose, 10 ml of an aqueous 5% MES (2-(N-Morpholino)ethanesulfonic acid) solution adjusted to pH 5.7 with potassium hydroxide, 100 mg of inositol, 1 ml of vitamins stock solution (10 g of thiamine hydrochloride, 1 g of pyridoxine hydrochloride, and 1 g of nicotinic acid per 1 liter of an aqueous solution) and 8 g of agar. Then, the agar medium was subjected to autoclave at 120° C. for 20 minutes, dispensed to circular petri dishes, and then solidified.
Seeds of Arabidopsis thaliana (about 25 μl) were put in a 1.5 ml tube. Thereto was added 1 ml of a 10-fold diluted solution of a sodium hypochlorite solution (Nacalai Tesque) with sterilized distilled water. The seed were sterilized while stirring for about 1 minute with a tube mixer (TOMY, MT-360, MIXING SPEED10). […]

[5] = system: transformed cell TM182-p415CYC1; assay: Control growth test with transformed yeast cell TM182-p415CYC1 (toxicity to yeast); format: cell-based; conditions: trans-zeatin 0.6 ppm; chemical substance 2 ppm; 30° C., 24 hours; turbidity OD 600
Summary of the method: as §1

cytokinin receptor CRE1 [6] = molecular target: T1, cytokinin receptor CRE1; format: binding; conditions: radiolabel 2IP 10 nM; test substance 10 μM
Protocol: As the cytokinin labeled with a radioisotope of hydrogen, tritium so as to become highly radioactive, [3H]N-6-(isopent-2-enyl)Adenine manufactured by Amersham Biosciences (hereinafter, referred to as radiolabel 2IP) was used.
First, 100 μg of the membrane protein fraction of the transformed cell TM182-p415CYC1, a radiolabel 2IP dilution at a predetermined concentration with a phosphate buffer and 1 μl of a test substance dilution at a predetermined concentration with DMSO were mixed in a phosphate buffer to prepare 100 μl of a reaction liquid. Next, the reaction liquid was allowed to stand in ice for 1 hour and then filtered with a glass filter GF/B (manufactured by Whatman) to collect a membrane protein fraction of the transformed cell TM182-p425GPD-CRE1. The glass filter was immersed in a liquid scintillation cocktail Ultima Gold (manufactured by PerkinElmer Co., Ltd.), and radioactivity was measured by a liquid scintillation counter. […] In order to eliminate influence of radioactivity due to nonspecific binding of the radiolabel 2IP, a value of radioactivity obtained in the test using the membrane protein fraction of the transformed cell TM182-p425GPD was subtracted from a value of radioactivity obtained in the test using the membrane protein fraction of the transformed cell TM182-p425GPD-CRE1.

Arabidopsis thaliana [7] = assay: Root growth-promoting activity test (Example 22); format: in vivo; conditions: test final concentration 0.625 ppm (highest root growth rate); main root length vs control section, 22° C., 10 days
Summary of the method: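 Arabidopsis thaliana seeds (10-20 per tube) grown in sterile Enshi standard medium containing compound at 0.001 ppm to 10 ppm final (DMSO vehicle), 22 °C, 10 days in light. Main root length measured, eight repeats averaged; root growth rate (%) = treated/control mean main root length ×100.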

Arabidopsis thaliana [8] = assay: Root growth-promoting activity test (Example 9); format: in vivo; conditions: test final concentration 0.625 ppm (concentration with highest root growth rate); main root length vs control section, 22° C., 10 days
Summary of the method: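 Arabidopsis seeds (10–20 per tube) were grown in Enshi standard medium containing the compound from DMSO at 0.001–10 ppm final, at 22° C in light for 10 days. Main root length was averaged over eight repeats and expressed as % of the control.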

[9] = trans-zeatin 0.6 ppm, chemical substance 2 ppm

| SMILES | melting point [°C] | dry weight of roots per plant, % of the control section (rice [1]) [%] | inhibition at 2 ppm (cytokinin receptor CRE1 [2]; read-out: Activity (%) of test substance for inhibiting intracellular signaling from plant-derived cytokinin receptor of cell) [%] | Relative growth rate (%) in test section of test substance to control section, Transformed cell TM182-CRE1 (cytokinin receptor CRE1 [2]; [9]) [%] | main root growth increase relative to the control section (rice [3]; 10 ppm) [%] | main root growth increase relative to the control section (rice [3]; 25 ppm) [%] | adventitious root formation from the hypocotyl portion [4] | Relative growth rate (%) in test section of test substance to control section, Transformed cell TM182-p415CYC1 [5] [%] | radioactivity of bound radiolabel 2IP compared with DMSO only or abscisic acid (cytokinin receptor CRE1 [6]) | Activity (%) of test substance for inhibiting intracellular signaling from plant-derived cytokinin receptor of cell (cytokinin receptor CRE1 [2]; trans-zeatin 0.6 ppm, chemical substance 2 ppm, = 100 − relative growth rate of TM182-CRE1) [%] | Root growth-promoting activity (root growth rate) (Arabidopsis thaliana [7]) [%] | Root growth-promoting activity (root growth rate) (Arabidopsis thaliana [8]) [%] |
| --- | --- | --- | --- | --- | --- | --- | --- | --- | --- | --- | --- | --- |
| OCCNc1nc(-c2ccccc2)c2cc(Cl)ccc2n1 [Ic3-1, 6-chloro-2-(2-hydroxyethylamino)-4-phenylquinazoline] | 137.9 | 119 | 94.6 | 5.4 | 17 | 20 | adventitious roots were formed | 114.1 |  |  |  |  |
| C/C(=C\CNc1ncnc2nc[nH]c12)CO [trans-zeatin, reference compound] |  |  |  |  |  |  |  |  | the radioactivity was decreased |  |  |  |
| OCCCCNc1nc(-c2ccccc2)c2cc(Cl)ccc2n1 [Ic3-4] |  |  |  | 1.4 |  |  |  | 106.4 | the radioactivity was decreased | 98.6 | 129.5 | 129.5 |
